The source made the active and inactive calls. No rule for the calls is given here.
Biological target: Ubiquitin-conjugating enzyme E2 N (Homo sapiens) (UniProt P61088)
Test: UBE2N binders by NMR, biophysical, purified protein (AID 1552)
Conditions: NMR binding to purified UBE2N

Chain of Ubiquitin-conjugating enzyme E2 N (Homo sapiens) (P61088 whole entry, looked up): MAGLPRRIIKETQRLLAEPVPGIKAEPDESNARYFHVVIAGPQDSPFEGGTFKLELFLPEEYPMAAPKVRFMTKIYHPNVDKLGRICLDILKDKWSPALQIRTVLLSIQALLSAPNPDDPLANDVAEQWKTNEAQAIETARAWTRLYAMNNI

Row | SMILES | Kd
1 | N#CCCn1c(=O)oc2ccccc21 | > 4 mM (inactive)
2 | CC1(C)C2CC(=O)[C@]3(C)C(CC[C@@]4(C)[C@H](c5ccoc5)OC(=O)C5OC543)[C@@]2(C)[C@@H](O)C[C@H]1O (some centres undefined) | > 4 mM (inactive)
3 | O=c1[nH]cc(N=Cc2ccc(F)cc2)c(=O)[nH]1 | > 4 mM (inactive)
4 | NC(=O)CN1CC(c2ccccc2)CC1=O (centres undefined) | > 4 mM (inactive)
5 | Fc1ccc(F)c(CN2CCN(c3ncccn3)CC2)c1 | > 4 mM (inactive)
6 | CCOC(=O)c1c(-c2ccncc2)csc1N | > 4 mM (inactive)
7 | c1ccc(-c2noc(-c3cccnc3)n2)nc1 | > 4 mM (inactive)
8 | O=C(Nc1ccccc1N1CCCC1)c1cccnc1 | > 4 mM (inactive)
9 | NC(=O)Cn1nnc(-c2ccc(C(F)(F)F)cc2)n1 | > 4 mM (inactive)
10 | CC(=O)Nc1ccn(-c2ccccc2)n1 | > 4 mM (inactive)
11 | Cc1sc(N)c(C(N)=O)c1C | > 4 mM (inactive)
12 | Cc1cc(C(=O)NCc2cccnc2)cs1 | > 4 mM (inactive)
13 | CCCCCCCCCCCCCCCCCCOCC(O)CO (centres undefined) | > 4 mM (inactive)
14 | O=C1C2C3C=CC(C3)C2C(=O)N1c1cccnc1 (centres undefined) | > 4 mM (inactive)
15 | O=C(O)C1COc2ccccc2O1 (centres undefined) | > 4 mM (inactive)
16 | O=C(c1ccc(F)cc1)N1CCN(c2ncccn2)CC1 | > 4 mM (inactive)
17 | O=C(Nn1cnnc1)c1csc2c1CCCC2 | > 4 mM (inactive)
18 | O=C(NC(O)C(=O)c1ccccc1)c1ccco1 (centres undefined) | > 4 mM (inactive)
19 | COC(=O)CC1C(C)(C)C(OC(C)=O)[C@@H]2[C@@H](OC(C)=O)[C@]34O[C@@]2(O)[C@]1(C)C3CC[C@]1(C)C4=CC(=O)O[C@H]1c1ccoc1 (some centres undefined) | > 4 mM (inactive)
20 | O=c1[nH]cc(NCc2ccco2)c(=O)[nH]1 | > 4 mM (inactive)
21 | CC(C)(O)CC[C@@H](O)[C@](C)(O)C1CC[C@@]2(O)C3=CC(=O)C4C[C@@H](O)[C@@H](O)C[C@]4(C)C3CC[C@]12C (some centres undefined) | > 4 mM (inactive)
22 | NC(=O)COc1ccccc1O | > 4 mM (inactive)

Row | SMILES | Kd
23 | O=C(O)c1ccc(-n2ccnc2)cc1 | > 4 mM (inactive)
24 | O=S(=O)(Nc1cccnc1Cl)c1ccccc1 | > 4 mM (inactive)
25 | CC(=O)O[C@@H]1CC2C(C)(C)[C@H](O)C[C@H](O)[C@]2(C)C2CC[C@@]3(C)C(=CC(=O)O[C@H]3c3ccoc3)[C@@]21C (some centres undefined) | > 4 mM (inactive)
26 | C[C@@H]1CCC2[C@](C)(CO)[C@@H](O)CC[C@]2(C)[C@@]12CC[C@@](CO)(CCO)O2 (some centres undefined) | > 4 mM (inactive)
27 | O=C(c1ccc(Cl)c(F)c1F)N1CCCC1 | > 4 mM (inactive)
28 | NC(CCC(=O)Nc1ccc([N+](=O)[O-])cc1)C(=O)O (centres undefined) | > 4 mM (inactive)
29 | Nc1c(N2CCCC2)cnn(-c2ccccc2)c1=O | > 4 mM (inactive)
30 | c1ccc(-c2nnc(CNCc3ccco3)o2)cc1 | > 4 mM (inactive)
31 | Oc1cccc(N2CCOCC2)c1 | > 4 mM (inactive)
32 | Cc1nc(-c2cnccn2)sc1C(=O)O | > 4 mM (inactive)
33 | O=c1c2ccccc2ncn1C1CCCCC1 | > 4 mM (inactive)
34 | O=C1C2CC=C(Cl)CC2C(=O)N1c1ccccc1O (centres undefined) | > 4 mM (inactive)
35 | Cc1ccc(S(=O)(=O)CC(N)=O)cc1 | > 4 mM (inactive)
36 | NC(=O)C1(S(=O)(=O)c2ccccc2)CC1 | > 4 mM (inactive)
37 | N/N=C/c1cccnc1 | > 4 mM (inactive)
38 | COc1cc([C@@H]2c3cc4c(cc3C(OC3O[C@@H]5COC(C)O[C@H]5[C@H](O)[C@H]3O)C3COC(=O)[C@@H]32)OCO4)cc(OC)c1O (some centres undefined) | > 4 mM (inactive)
39 | Cc1cccc(NS(=O)(=O)c2cccs2)n1 | > 4 mM (inactive)
40 | O=C(Nn1cnnc1)c1cc2c(s1)CCCCC2 | > 4 mM (inactive)
41 | CCc1nnc(NC(C)=O)s1 | > 4 mM (inactive)
42 | CC(CCC(=O)O)[C@H]1CCC2C3CC[C@@H]4C[C@H](O)CC[C@]4(C)C3CC[C@@]21C (some centres undefined) | > 4 mM (inactive)
43 | O=C(CSC1=NCCS1)N1CCc2ccccc21 | > 4 mM (inactive)
44 | CC(=O)Nc1ccc(N2CCOCC2)cc1 | > 4 mM (inactive)
